Measured values as given in patent US4593104A, “2-halo-N-(azole-1-yl-methyl)-substituted acetanilides” (BASF Aktiengesellschaft, priority 1976, dated 1986).

Legend:
Assay in all cases: preemergence treatment in the greenhouse, % damage
[1] = test system: Arach. hypog.; assay type: in vivo, Arachis hypogaea
Source text: The vessels employed were plastic flowerpots having a volume of 300 cm^3; the substrate was a sandy loam containing about 1.5% humus. The seeds of the test plants (see Table 1) were sown shallow, and separated according to species. In the case of Cyperus esculentus, pregerminated tubers were planted. In the preemergence treatment, the active ingredients were then immediately applied to the surface of the soil. They were suspended or emulsified in water as the vehicle, and sprayed through atomizing nozzles. After the agents had been applied, the vessels were lightly sprinkler-irrigated to set germination and growth going, and to activate the chemical agents. The vessels were then covered with transparent plastic hoods until the plants had taken root. This cover ensured uniform germination of the test plants (to the extent that this was not impaired by the chemicals), and prevented readily volatile substances from evaporating.
For postemergence treatment, the plants were first grown to a height of from 3 to 10 cm, depending on their habit, before treated. Hoods were not placed on the pots. The experiments were set up in the greenhouse, hotter areas (25° to 40° C.) being preferred for heat-loving species, and 15° to 30° C. for plants from moderate climates. The experiments were carried out for from 4 to 6 weeks. During this period the plants were tended and their reaction to the various treatments was assessed. The following tables contain the substances investigated, the application rates in kg/ha of active ingredient, and the test plant species. Assessments were made on a 0 to 100 scale, 0 denoting no damage or normal emergence, and 100 denoting no emergence or complete destruction of at least the visible plant parts.

[2] = test system: Matric. spp.; assay type: in vivo
Summary of the method: (§1)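 Test species were sown separately in sandy loam and held at 25–40 °C (heat-loving) or 15–30 °C (temperate). Actives in water went onto the soil surface immediately (preemergence) or onto 3–10 cm plants (postemergence). A 0–100 scale rates emergence loss or destruction over 4–6 weeks.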

[3] = test system: Setaria spp.; assay type: in vivo
Summary of the method: as §1

[4] = test system: Solanum nigrum; assay type: in vivo; conditions: 1.0 kg/ha
Summary of the method: as §1

[5] = test system: Bromus spp.; assay type: in vivo
Summary of the method: as §1

[6] = test system: Brassica napus; assay type: in vivo; conditions: 1.0 kg/ha
Summary of the method: as §1

[7] = test system: Cyp. diff.; assay type: in vivo; conditions: 1.0 kg/ha
Summary of the method: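 Ratings, on a 0 to 100 scale, show injury where 100 means no emergence or complete destruction of visible parts. Compounds in water were sprayed either onto freshly sown soil, which was then watered and hooded, or onto plants 3–10 cm tall. Observation lasted 4–6 weeks.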

[8] = test system: Alopec. myosur.; assay type: in vivo
Summary of the method: as §1

[9] = test system: Echin. c.g.; assay type: in vivo
Summary of the method: as §1

[10] = test system: Zea mays; assay type: in vivo; conditions: 2.0 kg/ha
Summary of the method: as §1

| Structure (SMILES) | % damage ([1]; 1.0 kg/ha) | % damage ([2]; 1.0 kg/ha) | % damage ([3]; 1.0 kg/ha) | % damage [4] | % damage ([5]; 1.0 kg/ha) | % damage [6] | % damage [7] | % damage ([8]; 1.0 kg/ha) | % damage ([9]; 1.0 kg/ha) | % damage ([1]; 2.0 kg/ha) | % damage ([2]; 2.0 kg/ha) | % damage ([3]; 2.0 kg/ha) | % damage ([5]; 2.0 kg/ha) | % damage [10] | % damage ([8]; 2.0 kg/ha) | % damage ([9]; 2.0 kg/ha) |
| --- | --- | --- | --- | --- | --- | --- | --- | --- | --- | --- | --- | --- | --- | --- | --- | --- |
| Cc1ncn(CN(C(=O)CCl)c2c(C)cccc2C)n1 | 0% | 92% | 100% | 100% | 98% | 5% | 100% | 97% | 100% |  |  |  |  |  |  |  |
| Cc1cccc(C)c1N(Cn1ncnn1)C(=O)CCl |  |  |  |  |  |  |  |  |  | 15% | 100% | 95% | 98% | 15% | 98% | 100% |
